Among the data in PubChem BioAssay (NCI) are TGI values, retold here.

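Five compound concentrations were applied to cells in 96-well plates for 48 hours; endpoints were derived by simple linear interpolation of the resulting dose-response curve. TGI denotes the concentration required for complete inhibition of growth.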 Bounds are passed on as bounds.

Test systems include HOP-92 NSCLC; 786-0 renal; M14 melanoma; NCI-H522 lung; IGROV1 ovarian; SN12C renal; EKVX NSCLC; SK-OV-3 ovarian; HCT-116 colon; MCF7 breast.
What all share (assay): DTP human tumour cell line panel, 48 h

With `CC(=O)NC(CC(C)C)C(=O)NC(Cc1ccccc1)C(=S)N1CCCC1` (stereo unspecified), the concentration for total growth inhibition (TGI) in the test with HOP-92 NSCLC, in the test with 786-0 renal, in the test on M14 melanoma, in the test with NCI-H522 lung, with IGROV1 ovarian and in the test on SN12C renal was greater than 100 µM each time. Further, the concentration for total growth inhibition (TGI) in the test with EKVX NSCLC and with SK-OV-3 ovarian was greater than 100 µM each time.

`Cc1ccc(S(=O)(=O)N/N=C(/c2nc3ccc([N+](=O)[O-])cc3[nH]c2=O)C(O)c2ccc(C(O)/C(=N\NS(=O)(=O)c3ccc(C)cc3)c3nc4ccc([N+](=O)[O-])cc4[nH]c3=O)cc2)cc1` (stereo unspecified): the total growth inhibition concentration (TGI) was greater than 100 µM with HOP-92 NSCLC; greater than 100 µM in the test with 786-0 renal; greater than 100 µM in the test with M14 melanoma; greater than 100 µM in the test on HCT-116 colon; 55.7 µM with NCI-H522 lung; greater than 100 µM with IGROV1 ovarian. The concentration for total growth inhibition (TGI) in the test on EKVX NSCLC and in the test on SK-OV-3 ovarian was greater than 100 µM each time.

On to `Cc1c(/C=N/N(C)C)oc2c1cc(O)c1ncccc12`, for which the TGI with HOP-92 NSCLC was 76.8 µM; with 786-0 renal it was greater than 100 µM; in the test with M14 melanoma it was 14.9 µM; in the test with HCT-116 colon it was greater than 100 µM; in the test with NCI-H522 lung, 8.58 µM; in the test with IGROV1 ovarian, 55.7 µM. For the same compound, the TGI in the test with SN12C renal is 96.4 µM; in the test with EKVX NSCLC, 6.37 µM; in the test with SK-OV-3 ovarian it was 71.7 µM.

As to `O=P(O)(O)C1(P(=O)(O)O)CC1`, the TGI with 786-0 renal, in the test on M14 melanoma, in the test with HCT-116 colon, with NCI-H522 lung, in the test with IGROV1 ovarian and in the test on SN12C renal was greater than 100 µM each time. Further, the TGI in the test with EKVX NSCLC and with SK-OV-3 ovarian was greater than 100 µM throughout.

For the compound `O=C(NNc1ccccc1)/C(=C/c1ccc2c(c1)OCO2)NC(=O)c1ccccc1`, the TGI with HOP-92 NSCLC, in the test with 786-0 renal, in the test on M14 melanoma, in the test on HCT-116 colon, in the test with NCI-H522 lung and with IGROV1 ovarian was greater than 100 µM in each case. The total growth inhibition concentration (TGI) in the test on SN12C renal, in the test on EKVX NSCLC and in the test with SK-OV-3 ovarian was greater than 100 µM in each case.

As for `CC(C)(C)C(C#N)(C#N)c1ccc(C(C#N)(C#N)C(C)(C)C)nn1`, the TGI in the test on HOP-92 NSCLC, with 786-0 renal, in the test with M14 melanoma, in the test on NCI-H522 lung, in the test on IGROV1 ovarian and in the test on SN12C renal was greater than 100 µM each time. Besides, the concentration for total growth inhibition (TGI) in the test with EKVX NSCLC and with SK-OV-3 ovarian was greater than 100 µM in each case.

In the case of `Brc1ccc2ns[s+]c2c1`, the concentration for total growth inhibition (TGI) in the test with HOP-92 NSCLC is 95 µM; with 786-0 renal it was greater than 100 µM; in the test on M14 melanoma, 5.88 µM; in the test with HCT-116 colon, greater than 100 µM; in the test with NCI-H522 lung, greater than 100 µM; in the test with IGROV1 ovarian it was greater than 100 µM. Further, the TGI with SN12C renal, with EKVX NSCLC and in the test with SK-OV-3 ovarian was greater than 100 µM throughout.

As to `CC1=C(C(=O)Nc2cc(F)c(F)cc2F)C(c2ccc([N+](=O)[O-])cc2)C(C(=O)Nc2cc(F)c(F)cc2F)=C(C)N1`, the total growth inhibition concentration (TGI) was 42.2 µM in the test with HOP-92 NSCLC; greater than 100 µM in the test with 786-0 renal; greater than 100 µM in the test on M14 melanoma; greater than 100 µM with HCT-116 colon; 55.6 µM with NCI-H522 lung; greater than 100 µM in the test with IGROV1 ovarian. Besides, the TGI in the test with SN12C renal, with EKVX NSCLC and in the test on SK-OV-3 ovarian was greater than 100 µM in each case.

Regarding `COc1cc(CCc2ccc(N)cc2)cc(OC)c1OC`, the TGI was greater than 100 µM in the test with HOP-92 NSCLC; greater than 100 µM in the test on 786-0 renal; greater than 100 µM in the test on M14 melanoma; greater than 100 µM in the test on HCT-116 colon; greater than 83.4 µM in the test on NCI-H522 lung; greater than 100 µM in the test with IGROV1 ovarian. The TGI in the test on SN12C renal, in the test on EKVX NSCLC and in the test with SK-OV-3 ovarian was greater than 100 µM throughout.

Take `CN(C)CCNC(=O)c1cccc2c1Oc1c(cccc1[N+](=O)[O-])O2`: the TGI in the test with MCF7 breast was greater than 100 µM; in the test with 786-0 renal, 3.98 µM; in the test with M14 melanoma, 16.2 µM; with HCT-116 colon, 3.4 µM; in the test on NCI-H522 lung it was 3.22 µM; in the test with IGROV1 ovarian it was 8.9 µM. Further, the values for the TGI in the test on SN12C renal and in the test with EKVX NSCLC were 3.72 µM and 14.3 µM, respectively.

Take `Nc1ncnc2c1ncn2C1OC(CO)C(O)C1N` (stereo unspecified): the TGI in the test with HOP-92 NSCLC, in the test on 786-0 renal, in the test on M14 melanoma, with HCT-116 colon, with NCI-H522 lung and in the test with IGROV1 ovarian was greater than 100 µM each time. Also, the TGI in the test with SN12C renal, in the test on EKVX NSCLC and in the test with SK-OV-3 ovarian was greater than 100 µM each time.

Take `CC(=O)OC1COC(n2c(=S)n(-c3ccccc3)c(=O)c3ccccc32)C(OC(C)=O)C1OC(C)=O` (stereo unspecified): the total growth inhibition concentration (TGI) with HOP-92 NSCLC, with 786-0 renal, in the test on M14 melanoma, with HCT-116 colon, in the test on NCI-H522 lung and in the test on IGROV1 ovarian was greater than 100 µM throughout. The TGI with SN12C renal, in the test on EKVX NSCLC and in the test with SK-OV-3 ovarian was greater than 100 µM throughout.

As for `O=C(Nc1nc2c(ncn2C2OC(CO)C(O)C2O)c(=O)[nH]1)c1ccccc1` (stereo unspecified), the TGI in the test on HOP-92 NSCLC, in the test with 786-0 renal, with M14 melanoma, in the test with HCT-116 colon, in the test with NCI-H522 lung and in the test with IGROV1 ovarian was greater than 100 µM throughout. Moreover, the total growth inhibition concentration (TGI) in the test with SN12C renal, with EKVX NSCLC and in the test with SK-OV-3 ovarian was greater than 100 µM in each case.

Take `CC(=O)NNc1nc(C)c(C(=O)NNC(=O)C(=O)Nc2ccc(Cl)cc2Cl)s1`: the TGI in the test with HOP-92 NSCLC is 70.9 µM; in the test on 786-0 renal, greater than 100 µM; with M14 melanoma, greater than 100 µM; with HCT-116 colon it was greater than 100 µM; in the test with NCI-H522 lung, 52.8 µM; in the test on IGROV1 ovarian, greater than 100 µM. In addition, the TGI in the test with SN12C renal, in the test with EKVX NSCLC and with SK-OV-3 ovarian was greater than 100 µM throughout.
